{"source": "patent US20040127468A1", "about": "“Methods and compositions for treating apoptosis associated disorders” (priority 2001, published 2004)", "key": {"[1]": {"system": "NGF differentiated PC12 cells", "assay": "Survival of NGF differentiated PC12 cells after apoptosis initiating insult (counting intact nuclei)", "format": "cell-based", "protocol": "PC12 cells (ATCC, Manassas, Md.) were propagated in minimum essential medium (MEM) containing 10% horse serum, 5% fetal bovine serum, 2 mM L-glutamine, 50 units/ml penicillin, and 50 μg/ml streptomycin (MEM with serum, MIS), all purchased from Life Technologies (Rockville, Md.). The cells were grown on 24 well plates (8×10^4 cells/well) for counting of intact nuclei as an estimate of survival, poly-L-lysine treated coverslips (1×10^4 cells/coverslip) for imaging with epiflorescence microscopy or laser confocal scanning microscopy (LCSM) or 100 mm dishes (1×10^6 cells/plate) for protein chemistry. The cells were differentiated for 6 days in M/S supplemented with 100 ng/ml 7S NGF (Upstate Biotech., Lake Placid, N.Y.). MEM with serum and NGF is abbreviated as M/S+N (see (Tatton et al., 1994, J. Neurochemistry, 63:1572-1575; Wadia et al., J. Neuroscience, 1998, 18: 932-947; Carlile et al., 2000, Molecular Pharmacology, 57:2-12) for further details of culture and treatment). Serum and NGF Withdrawal: Following incubation for 6 days in MEM with serum and NGF, cells underwent three successive washes in Hanks' Balanced Salt Solution (HBSS; Life Technologies, Rockville, Md.) to remove NGF and serum-borne trophic agents and then were replaced into MEM with serum and NGF for controls or into MEM without serum and NGF to induce apoptosis by serum and NGF withdrawal. C2-Ceramide, Rotenone, Peroxide, and Atractyloside Exposure: After 6 days of exposure to serum and NGF, cultures maintained in MEM with serum and NGF were treated for 24 hours with either vehicle (HBSS) as a control, or concentrations of C2-ceramide in HBSS varying from 2 to 50 μM, concentrations of rotenone in BSS varying from 2 to 50 nM, concentrations of H2O2 in HBSS varying from 0.01 to 0.25 mM H2O2 or concentrations of atractyloside in HBSS varying from 2 to 20 mM. Both cell survival and the percentages of cells with evidence of apoptotic nuclear degradation were assessed for all treatments. To estimate survival, the cells were seeded at a density of 8×10^4 cells/well in 24 well plates. Cells were harvested 24 hours after treatment and lysed. Intact nuclei were counted using a hemocytometer (see see (Tatton et al., 1994, J. Neurochemistry, 63:1572-1575; Wadia et al., J. Neuroscience, 1998, 18: 932-947; Carlile et al., 2000, Molecular Pharmacology, 57:2-12) for details of treatment and counting methods). The capacity of phosphatidic acid to increase survival, decrease apoptosis and maintain mitochondrial membrane potential was determined by counting intact nuclei as an indicator of cell survival, determining the percentages of cells with nuclear chromatin (DNA) condensation by staining cells with YOYO-1, a nucleic acid binding dye, and measuring mitochondrial potentiometric dye fluorescence by imaging them with florescence microscopy."}, "[2]": {"system": "cerebellar granule neurons", "assay": "Survival of cerebellar granule neurons after glutamate (counting intact nuclei)", "format": "cell-based, rat", "conditions": "apoptosis initiating insult: Glutamate", "protocol": "(§1) Cerebellar granule neurons were obtained from postnatal day 7 rat pups by enzymatic digestion and maintained in serum supplemented Eagle's Basal medium. Viable cells were plated at a density of 500,000 cells/ml onto poly-L-lysine coated tissue culture plastic or glass coverslips. Cytosine arabinoside (Ara-C) (10 μM) was added at 24 hours to halt glial proliferation. To induce apoptosis in the cerebellar granule neurons, 10^−4 to 10^−6 M glutamate was added on day 7 to the culture.\nBoth cell survival and the percentages of cells with evidence of apoptotic nuclear degradation were assessed for all treatments. […] Intact nuclei were counted using a hemocytometer (see see (Tatton et al., 1994, J. Neurochemistry, 63:1572-1575; Wadia et al., J. Neuroscience, 1998, 18: 932-947; Carlile et al., 2000, Molecular Pharmacology, 57:2-12) for details of treatment and counting methods).\n(§2) The capacity of phosphatidic acid to increase survival, decrease apoptosis and maintain mitochondrial membrane potential was determined by counting intact nuclei as an indicator of cell survival, determining the percentages of cells with nuclear chromatin (DNA) condensation by staining cells with YOYO-1, a nucleic acid binding dye, and measuring mitochondrial potentiometric dye fluorescence by imaging them with florescence microscopy."}, "[3]": {"system": "NGF differentiated PC12 cells", "assay": "Mitochondrial membrane potential by potentiometric dye fluorescence (TMRM, CMTMR) in NGF differentiated PC12 cells", "format": "cell-based", "protocol": "Live cell ΔψM measurement: Cells on polylysine coated coverglass were incubated with 100 nM tetramethylrodaminemethylester (TMRM, Molecular probes, Eugene, Oreg.) or 10 μg/ml JC-1 (Molecular Probes, Eugene, Oreg.) to provide an estimate of ΔψM. The coverslips were transferred to a gas and temperature controlled circulating live cell chamber (Medical Systems Corp., Greenvale, N.Y.). A thermocoupler immersed in the medium maintained the media temperature at 37±0.1° C. TMRM, JC-1 and chloromethyltetramethylrosamine (CMTMR, Molecular probes, Eugene, Oreg.) and JC-1 stained cells were imaged 10 minutes following dye addition and images were collected every 3 minutes for approximately 20 minutes.\nFixed cell ΔψM Measurement. After treatment of NGF differentiated PC12 cells on poly-L-lysine coated 12 mm coverslips, the fixable potentiometric dye, CMTMR, was added at 137 nM for 15 minutes at 37° C. and simultaneous immunocytochemistry was performed. The cells were then rinsed once with warm Dulbecco's PBS prior to overnight fixation with ice cold 4% paraformaldehyde in PB and mounted onto slides with the aqueous mounting medium, Aquamount (Gallard-Schlesinger Ind., Garden City, N.Y.).\nFlorescence Microscopy. Images were obtained using a Leica TCS4D confocal microscope coupled to an argon-krypton laser or a standard epi-floresence microscope. The images were scanned or imaged using an oil immersion 100×1.4 N.A. objective to minimize focal depth. CMTMR and TMRM treated cells were imaged using 568 nm excitation and detected with 600/30 nm band pass filter. The JC-1 incubated cells were imaged using 488 nm excitation and detected using 530/30 nm band pass and 590 nm long pass filters observed by separate detectors. Image resolution was 512×512×8 bits per pixel. […] To measure the intensity of mitochondrial potentiometric dye fluorescence, pixel intensity measurements from 20-40 mitochondria from each of 50-70 cells per treatment, per experiment were obtained by placing a 3×3 pixel box at 2 points in each mitochondrion. The fluorescence intensity values were automatically exported to an Excel spreadsheet for subsequent analysis in MicroCal Origin (Northampton, Mass.). […]\nas §2"}, "[4]": {"system": "NGF differentiated PC12 cells", "assay": "Nuclei with chromatin condensation (YOYO-1 staining) in NGF differentiated PC12 cells", "format": "cell-based", "protocol": "PC12 cells (ATCC, Manassas, Md.) were propagated in minimum essential medium (MEM) containing 10% horse serum, 5% fetal bovine serum, 2 mM L-glutamine, 50 units/ml penicillin, and 50 μg/ml streptomycin (MEM with serum, MIS), all purchased from Life Technologies (Rockville, Md.). The cells were grown on 24 well plates (8×10^4 cells/well) for counting of intact nuclei as an estimate of survival, poly-L-lysine treated coverslips (1×10^4 cells/coverslip) for imaging with epiflorescence microscopy or laser confocal scanning microscopy (LCSM) or 100 mm dishes (1×10^6 cells/plate) for protein chemistry. The cells were differentiated for 6 days in M/S supplemented with 100 ng/ml 7S NGF (Upstate Biotech., Lake Placid, N.Y.). MEM with serum and NGF is abbreviated as M/S+N (see (Tatton et al., 1994, J. Neurochemistry, 63:1572-1575; Wadia et al., J. Neuroscience, 1998, 18: 932-947; Carlile et al., 2000, Molecular Pharmacology, 57:2-12) for further details of culture and treatment). […]\n(§3) Percentages of cells with apoptotic nuclei were determined for cells grown on poly-L-lysine treated coverslips (density 1×10^4/coverslip). […] The total number of YOYO-1 stained nuclei with chromatin condensation were counted on twenty-five 40× fields for each coverslip, each field chosen by pairs of randomly-generated x-y coordinates. The proportion of nuclei with chromatin condensation were expressed as a percentage of the total number of cells in each field. […]\nas §2"}, "[5]": {"system": "cerebellar granule neurons", "assay": "Nuclei with chromatin condensation (YOYO-1 staining) in cerebellar granule neurons after glutamate", "format": "cell-based, rat", "conditions": "apoptosis initiating insult: Glutamate", "protocol": "as §1, §3, §2"}, "[6]": {"conditions": "apoptosis initiating insult: Serum and NGF Withdrawal"}}}
{"substance": "phosphatidic acid [PA]", "values": [{"measurement": "increase of cell survival by varying concentrations of phosphatidic acid", "setting": "[1]; after exposure to 0.1 mM H2O2 which kills about 60% of the cells (FIG. 3C)", "result": "does not substantially increase"}, {"measurement": "PA reduced apoptosis", "setting": "[1]; apoptosis initiated by peroxide or atractyloside, 2 to 30 μM PA", "result": "not"}, {"measurement": "PA Increases Survival", "setting": "[1]; apoptosis initiating insult: Atractyloside, 24 hours", "result": "No"}, {"measurement": "PA Increases Survival", "setting": "[1]; apoptosis initiating insult: Ceramide (C2-ceramide), 24 hours", "result": "Yes - FIG. 2A"}, {"measurement": "PA Increases Survival", "setting": "[1]; apoptosis initiating insult: Ceramide (C2-ceramide), 24 hours, listed as Phosphatidic acid", "result": "increase cell survival"}, {"measurement": "PA Increases Survival", "setting": "[1]; apoptosis initiating insult: Peroxide (H2O2), 24 hours, listed as phosphatidic acid", "result": "does not alter survival"}, {"measurement": "PA Increases Survival", "setting": "[1]; apoptosis initiating insult: Rotenone, 24 hours, listed as Phosphatidic acid", "result": "increase cell survival"}, {"measurement": "PA Increases Survival", "setting": "[1]; [6]", "result": "Yes - FIG. 3B"}, {"measurement": "PA Increases Survival", "setting": "[1]; apoptosis initiating insult: Serum and NGF Withdrawal, listed as Phosphatidic acid", "result": "increase cell survival"}, {"measurement": "PA Increases Survival", "setting": "[2]", "result": "Yes"}, {"measurement": "PA Increases Survival", "setting": "[2]; listed as Phosphatidic acid", "result": "increase cell survival"}, {"measurement": "PA Reduces Decreases In Mitochondrial Membrane Potential", "setting": "[3]; apoptosis initiating insult: Ceramide, dyes TMRM and CMTMR, listed as phosphatidic acid", "result": "reduces"}, {"measurement": "PA Reduces Decreases In Mitochondrial Membrane Potential", "setting": "[3]; apoptosis initiating insult: Rotenone, dyes TMRM and CMTMR", "result": "Yes - FIG. 4C"}, {"measurement": "PA Reduces Decreases In Mitochondrial Membrane Potential", "setting": "[3]; apoptosis initiating insult: Rotenone, dyes TMRM and CMTMR, listed as phosphatidic acid", "result": "reduces"}, {"measurement": "PA Reduces Decreases In Mitochondrial Membrane Potential", "setting": "[3]; [6]", "result": "Yes"}, {"measurement": "PA Decreases Nuclei With Chromatin Condensation", "setting": "[4]; apoptosis initiating insult: Ceramide", "result": "Yes"}, {"measurement": "PA Decreases Nuclei With Chromatin Condensation", "setting": "[4]; apoptosis initiating insult: Rotenone", "result": "Yes"}, {"measurement": "PA Decreases Nuclei With Chromatin Condensation", "setting": "[4]; [6]", "result": "Yes"}, {"measurement": "PA Decreases Nuclei With Chromatin Condensation", "setting": "[5]", "result": "Yes"}]}
